Source: patent publication US20220378676A1, “COMPOSITION FOR ENHANCING SKIN ELASTICITY OR IMPROVING SKIN WRINKLES” (AMOREPACIFIC CORPORATION, priority 2021, published 2022)

Legend:
[1] = system: RPE/Smo-GFP primary cilia model cells; test: Assessment of activation of primary cilia inhibited by particulate matter (PM2.5); assay type: cell-based, human; settings: PM2.5 50 ug/ml, 100 μM, 24 hours
Procedure: Particulate matter (PM2.5) was treated in RPE/Smo-GFP, which was the primary cilia model cells of Experimental Example 2. Specifically, particulate matter was directly collected in the air (37.34° N, 127.27° E, 167 m above sea level) using a Teflon filter (Teflon filter, Zefluor, Pall Life Science, Ann Arbor, Mich., USA). Then, this was treated at a concentration of 50 ug/ml in the cell culture medium. Thereafter, after treatment with 100 μM of 2-isopropylmalic acid for 24 hours, the fluorescence of Smo-GFP was visually observed using a fluorescence microscope, and then the production rate and length of primary cilia were measured and shown in FIGS. 4 and 5. The production rate of primary cilia was expressed as the ratio of the number of cells having primary cilia to the total number of cells as a percentage, and the length of primary cilia was a measure of the actual length of all cilia observed under a microscope. As a positive control, SAG (SMO agonist, Calbiochem Inc.), which was a primary cilia production promoting substance, was used.

c-Jun = c-Jun phosphorylation in particulate matter-treated fibroblasts (western blotting); assay type: cell-based; settings: human-derived fibroblasts, PM2.5, 100 μM, 24 hours; effect similar to SP600125
Procedure: Human-derived fibroblasts (LONZA Inc.) were treated with particulate matter (PM2.5). Then, after treatment with 100 μM of 2-isopropylmalic acid for 24 hours, cell lysate was made, protein was quantified, and the same amount of protein was separated by electrophoresis, and c-Jun, p-c-Jun (phosphorylated c-Jun) was performed by western blotting.

TNF-α = TNF-α expression in particulate matter-treated fibroblasts (ELISA); assay type: cell-based; settings: human-derived fibroblasts, PM2.5 50 ug/mL, 100 μM, 24 hours
Procedure: (§1) Human-derived fibroblasts (LONZA Inc.) were transfected with siRNA for IFT88 (siIFT88) or scrambled siRNA (SC), respectively, and then were treated with 50 ug/mL of particulate matter (PM2.5) and 100 μM of 2-isopropylmalic acid for 24 hours. Thereafter, the expression levels of IL-6 and TNF-α, which were inflammatory cytokines, were measured in culture conditions by ELISA assay, and the results were shown in FIG. 9.

[2] = system: RPE/Smo-GFP primary cilia model cells; test: Assessment of primary ciliary activation (confocal microscopy); assay type: cell-based, human; settings: 20 μM, 100 μM, 24 hours, vs control group
Procedure: In order to confirm the primary cilia activation effect of 2-isopropylmalic acid, RPE/Smo-GFP, primary cilia model cells, was prepared. Specifically, human telomerase-immortalized retinal pigmented epithelial (RPE) cells (ATCC Inc.) were transformed with Smo-GFP plasmid (Addgene Inc.) to prepare RPE/Smo-GFP. After treating RPE/Smo-GFP with 2-isopropylmalic acid (Sigma Aldrich Inc.) at different concentrations (20 μM, 100 μM) for 24 hours, the primary cilia production rate and primary cilia length were measured by confocal microscopy (LSM510; Carl Zeiss Microimaging Inc., Thornwood, N.Y.) and the results were shown in FIGS. 2 and 3. The production rate of primary cilia was expressed as the ratio of the number of cells having primary cilia to the total number of cells as a percentage, and the length of primary cilia was a measure of the actual length of all cilia observed under a microscope. As a positive control, SAG (SMO agonist, Calbiochem Inc.), which was a primary cilia production promoting substance, was used.

collagen = test: Collagen expression in particulate matter-treated fibroblasts (western blotting); assay type: cell-based; settings: human-derived fibroblasts, PM2.5, 100 μM, 24 hours
MMP-1 [3] = test: MMP-1 expression in particulate matter-treated fibroblasts (western blotting); assay type: cell-based; settings: human-derived fibroblasts, PM2.5, 100 μM, 24 hours
MMP-1 [4] = test: Inhibition of MMP-1 expression in an artificial skin model (immunocytochemistry, image analysis); assay type: cell-based; settings: full-thickness human 3D-skin model, PM2.5 100 ug/mL, 50 uM, 100 uM, 48 hours
Procedure: The effect of 2-IPMA on the skin was evaluated using a full-thickness human three-dimensional (3-D)-skin model. The full-thickness human 3D-skin model was fabricated in the following way. An artificial dermal layer was formed by loading a mixture of collagen (Nutragen, Advanced Biomatrix Inc.) and fibroblasts (NDFn, ThermoFisher Inc.) in a volume of 400 ul in Transwell® (Corning Inc.). Thereafter, a fibroblast culture medium (M106, Gibco Inc.) was put on the artificial dermal layer and cultured for 7 days to stabilize the artificial dermal layer. Next, keratinocytes (HEKn, ThermoFisher Inc.) were seeded on the artificial dermal layer, and cultured in keratinocyte culture medium (EpiLife, Gibco Inc.) for 1 day, followed by epidermal layer production medium (CnT-3DPR, CellnTEC) for 1 day, and then cultured in the same epidermal layer production medium for 10 days in a state of exposure to air to form an artificial epidermal layer, thereby constructing a full-thickness human 3D-skin model. 100 ug/mL of particulate matter (PM2.5) and 2-isopropylmalic acid (50 uM, 100 uM) were treated in the full-thickness human three-dimensional skin model constructed in this way for 48 hours. Thereafter, hematoxylin-eosin (H&E) staining and MMP-1 immunocytochemistry were performed, and the results were shown in FIG. 10.

IL-6 = IL-6 expression in particulate matter-treated fibroblasts (ELISA); assay type: cell-based; settings: human-derived fibroblasts, PM2.5 50 ug/mL, 100 μM, 24 hours
Procedure: as §1

## CC(C)C(O)(CC(=O)O)C(=O)O (stereo not shown) [2-isopropylmalic acid]
[1]
  length of primary cilia: getting longer
  production of primary cilia suppressed by particulate matter: restored
c-Jun
  phosphorylation of c-Jun by particulate matter: suppressed
TNF-α
  expression of TNF-α increased by particulate matter: reduced
[2]
  length of primary cilia: increased
  proportion of cells with primary cilia (production rate of primary cilia): statistically significantly higher than that of the control group
collagen
  collagen expression: increased
MMP-1 [3]
  MMP-1 expression: decreased
MMP-1 [4]
  expression of MMP-1 increased by the particulate matter: decreased
IL-6
  expression of IL-6 increased by particulate matter: reduced
